Here are results for one molecule from patent US11154529B2, “Phosphaplatin liquid formulations” (Phosplatin Therapeutics Inc., priority 2016, dated 2021).

The data set is described as follows: Reversal of PT-112 dimer formation by added pyrophosphate in 5 mg/mL aqueous PT-112 solution at ambient temperature. The format is physicochemical. Here is the method: Evidence that added pyrophosphate reverses the formation of PT-112 dimer in aqueous formulations of PT-112 was shown in the following experiment. A 5 mg/mL aqueous solution of PT-112 was prepared by dissolving PT-112 in 10 mM potassium phosphate buffer containing added potassium hydroxide such that the final solution pH was ˜6.5. […] The decrease was not accompanied by the formation of the RRT 3.1-3.2 impurity; nor the formation of any new impurities, rather an increase in the concentration of PT-112 was observed.

Regarding `O=P1(O)OP(=O)(O)[O][Pt]2([NH][C@@H]3CCCC[C@H]3[NH]2)[O]1` (stereo partly drawn) [(R,R)-pyrodach-2, (R,R)-trans-1,2-cyclohexanediamine-(dihydrogenpyrophosphato)platinum(II)], the PT-112 dimer level result is on record as “about 1.02%” (5 mg/mL in 10 mM potassium phosphate, pH ~6.5, about 24 hours at ambient temperature); “effectively non-detectable level” (adjusted to ~pH 7.5 plus 0.5 eq. of pyrophosphate, after 9 days at ambient temperature); “about 0.33%” (in the API). The PT-112 dimer concentration entry (adjusted to ~pH 7.5 with potassium hydroxide, 7 day period at ambient temperature, no pyrophosphate) is “progressively decrease”.
